The text below walks through data of patent US11497713B2, “Combination taxoid nanoemulsion with immunotherapy in cancer” (TargaGenix, Inc., priority 2017, dated 2022).

For assay [1], the system named is highly drug resistant tumor xenografts. Kind of assay: Highly drug resistant tumor xenografts in mice. Particulars: mouse, in vivo.
The subject of assay [2] is patient-derived PPT2 prostate cancer stem cell xenograft. The assay can be described thus: Patient-derived prostate cancer stem cell (PPT2) xenograft model. The class given is in vivo, mice. Particulars: patient-derived prostate CSC xenograft.
In assay [3] the test system is drug-resistant colon tumor xenografts. Kind of assay: Drug-resistant colon tumor xenografts. The class given is in vivo. The settings on record: all surviving mice.
Assay [4] has as its system drug-resistant cell lines expressing MDR phenotypes. The settings on record: cited from earlier work.
The next assay deals with PDAC. The settings on record: cited from earlier work.

“Also recorded” adds a separate entry of the source. Where two headings read alike, the source gives them in different places.

For `CC/C=C\C/C=C\C/C=C\C/C=C\C/C=C\C/C=C\CCC(=O)O[C@@H](C(=O)O[C@H]1C[C@@]2(O)[C@@H](OC(=O)c3ccccc3)[C@@H]3[C@]4(OC(C)=O)CO[C@@H]4C[C@H](O)[C@@]3(C)C(=O)[C@H](OC(=O)C3CC3)C(=C1C)C2(C)C)[C@H](C=C(C)C)NC(=O)OC(C)(C)C` [DHA-SBT-1214, Docosahexaenoic acid conjugate of SBT-1214], in assay [1], the efficacy entry was “remarkable efficacy”. Also, the “efficacy (tumor growth, survival)” value in assay [2] was “effective; also recorded: superior to ABRAXANE® and resulted in tumor clearance”. In assay [3], the tumor growth delay is listed as more than 167 days and the tumor regression entry is recorded as “complete regression”. Further, the “potency higher than those of paclitaxel and docetaxel” value in assay [4] is on record as “two-to-three”.

`Nc1ccn([C@@H]2O[C@H](CO)[C@@H](O)C2(F)F)c(=O)n1` [gemcitabine]: the median overall survival in the assay on PDAC (MPACT Phase III clinical trial) is given as 6.6 months; with PDAC (randomized Phase III trial, gemcitabine versus 5-FU), 5.65 months.
